In patent publication US4062956A, “Substituted 2-(2-hydroxyethyl)tetrahydro-1,4 oxazines and quaternary salts thereof useful for treating spasmodic syndromes” (Centre Europeen de Recherches Mauvernay, priority 1975, dated 1977):

How the values were obtained:
[1] = biological target: T1, smooth muscle spasms induced by acetylcholine (jejunum of the rat) (Rattus norvegicus, UniProt P08483); test: In vitro antagonism of acetylcholine-induced smooth muscle spasm, isolated jejunum of the rat (technique of MAGNUS); conditions: agonist acetylcholine, oxygen Tyrode solution, 30° C; for Kb: read-out: pA2 (converted)
T1 construct: The isolated organs were kept alive in a thermostatic oxygen Tyrode solution at 30° C; from tissue; host or cells: isolated rat jejunum
Protocol: (§1) The pharmacological studies of the compounds according to the invention were directed essentially to the elucidation of the antispasmodic potentialities of the cations, particularly at the level of smooth muscle spasms induced by acetylcholine, histamine and Ba^++ ions. […] The isolated organs were kept alive in a thermostatic oxygen Tyrode solution at 30° C and their contractions were recorded.

[2] = tested on: smooth muscle spasms induced by Ba^++ ions (ileum of the guinea pig); test: In vitro antagonism of Ba^++-induced smooth muscle spasm, isolated ileum of the guinea pig (technique of MAGNUS); conditions: agonist Ba^++, oxygen Tyrode solution, 30° C
Protocol: as §1

[3] = tested on: smooth muscle spasms induced by acetylcholine, histamine and Ba^++ ions; test: Type of antagonist exerted, overall from the isolated organ tests (acetylcholine, histamine, Ba^++); design: species or system rat; guinea pig; conditions: for TYPE OF ANTAGONIST EXERTED: Table I, over the three agonists; for mechanism and intensity of action compared with Tiemonium and papaverine: interpretation of Table I by principles of molecular pharmacology (ARIENS)
Protocol: as §1

[4] = biological target: T2, smooth muscle spasms induced by histamine (ileum of the guinea pig) (Cavia porcellus, UniProt P31389); test: In vitro antagonism of histamine-induced smooth muscle spasm, isolated ileum of the guinea pig (technique of MAGNUS); conditions: agonist histamine, oxygen Tyrode solution, 30° C; for Kb: read-out: pA2 (converted)
T2 construct: The isolated organs were kept alive in a thermostatic oxygen Tyrode solution at 30° C; from tissue; host or cells: isolated guinea pig ileum
Protocol: The pharmacological studies of the compounds according to the invention were directed essentially to the elucidation of the antispasmodic potentialities of the cations, particularly at the level of smooth muscle spasms induced by acetylcholine, histamine and Ba^++ ions. These investigations were carried out in vitro according to the technique of MAGNUS (Pflug. Arch. Ges. Physiol. 1904, 102, 349, and 1904, 103, 515 and 525) by using as biological indicators the jejunum of the rat for the first agonist and the ileum of the guinea pig for the two other agonists. The isolated organs were kept alive in a thermostatic oxygen Tyrode solution at 30° C and their contractions were recorded.
The response curve line as a function of the dose enabled the calculation of the affinity parameters (pA2 and pD'2) of the compounds according to the invention for the different types of receptor (VAN ROSSUM J.M. - Arch. Int. Pharmacodyn. 1963, 143, 299 -330).

[5] = tested on: smooth muscle spasms induced by acetylcholine (jejunum of the rat); test: In vitro antagonism of acetylcholine-induced smooth muscle spasm, isolated jejunum of the rat (technique of MAGNUS); conditions: agonist acetylcholine, oxygen Tyrode solution, 30° C
Protocol: as §1

T2 sequence (P31389 whole entry): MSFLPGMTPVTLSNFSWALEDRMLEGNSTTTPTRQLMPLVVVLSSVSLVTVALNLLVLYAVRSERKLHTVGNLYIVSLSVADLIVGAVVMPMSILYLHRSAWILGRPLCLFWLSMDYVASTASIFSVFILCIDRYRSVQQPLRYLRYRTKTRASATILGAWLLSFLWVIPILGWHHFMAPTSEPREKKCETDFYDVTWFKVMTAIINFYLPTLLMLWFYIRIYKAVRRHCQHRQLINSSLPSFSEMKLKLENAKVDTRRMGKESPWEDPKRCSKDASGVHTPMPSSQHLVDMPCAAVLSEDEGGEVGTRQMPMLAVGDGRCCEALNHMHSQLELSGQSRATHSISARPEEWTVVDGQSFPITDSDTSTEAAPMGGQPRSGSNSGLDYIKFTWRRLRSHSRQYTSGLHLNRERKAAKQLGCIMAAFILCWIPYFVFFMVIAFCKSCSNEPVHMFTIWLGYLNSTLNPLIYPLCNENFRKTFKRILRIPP
T1 sequence (P08483 whole entry): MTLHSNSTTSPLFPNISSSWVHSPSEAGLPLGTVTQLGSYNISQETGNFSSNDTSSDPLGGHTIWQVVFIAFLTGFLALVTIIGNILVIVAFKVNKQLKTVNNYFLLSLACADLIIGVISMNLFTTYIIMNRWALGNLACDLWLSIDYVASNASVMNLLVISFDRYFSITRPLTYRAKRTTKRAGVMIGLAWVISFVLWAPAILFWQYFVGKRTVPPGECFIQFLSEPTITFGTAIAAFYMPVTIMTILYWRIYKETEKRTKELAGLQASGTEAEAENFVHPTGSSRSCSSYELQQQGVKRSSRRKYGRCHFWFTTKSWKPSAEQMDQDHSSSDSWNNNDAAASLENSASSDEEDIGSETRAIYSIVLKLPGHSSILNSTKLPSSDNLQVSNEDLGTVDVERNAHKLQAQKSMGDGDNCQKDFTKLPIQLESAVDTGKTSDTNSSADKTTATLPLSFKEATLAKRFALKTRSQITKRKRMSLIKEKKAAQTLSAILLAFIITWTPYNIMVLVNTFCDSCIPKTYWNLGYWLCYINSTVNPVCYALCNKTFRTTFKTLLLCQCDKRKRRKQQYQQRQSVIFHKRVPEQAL

Compound | pA2 [1] | pA2 [2] | TYPE OF ANTAGONIST EXERTED [3] | pA2 [4] | pD'2 [5] | Kb [1] [µM] | pD'2 [2] | mechanism and intensity of action compared with Tiemonium and papaverine [3] | pD'2 [4] | Kb [4] [µM]
Tiemonium [reference compound] | 7 | 4.95 | Competitive | 5.21 | – | – | – | – | – | –
C[N+]1(C)CCOC(CC(O)(c2ccc(F)cc2)c2ccc(F)cc2)C1 (centres unmarked) [Compound 7] | – | 5.87 | Dualist | – | 3.21 | 3.47 | 4.04 | a mechanism of action which brings into play at the same time the competitive mechanism of Tiemonium and the non-competitive mechanism of papaverine | 3.70 | 10
C[N+]1(C)CCOC(CC(O)(c2ccccc2)c2ccccc2)C1 (centres unmarked) [Compound 2] | – | 4.90 | Competitive | – | – | 0.2 | – | great similarity of mechanism and intensity of action between compound no 2 and Tiemonium | – | 6.31
COc1ccc(Cc2nccc3cc(OC)c(OC)cc23)cc1OC [Papaverine, papaverine, reference compound] | – | – | – | – | 5.03 | – | 4.78 | – | 4.98 | –
